Data published in patent publication US8017386B2, “Divinyl ether synthase gene and protein, and uses thereof” (priority 2000, dated 2011).

Legend:
[1] = biological target: T1, CYP74D1 (Solanum lycopersicum, UniProt Q9FPM6)
T1 sequence (Q9FPM6 10-478 limits assumed): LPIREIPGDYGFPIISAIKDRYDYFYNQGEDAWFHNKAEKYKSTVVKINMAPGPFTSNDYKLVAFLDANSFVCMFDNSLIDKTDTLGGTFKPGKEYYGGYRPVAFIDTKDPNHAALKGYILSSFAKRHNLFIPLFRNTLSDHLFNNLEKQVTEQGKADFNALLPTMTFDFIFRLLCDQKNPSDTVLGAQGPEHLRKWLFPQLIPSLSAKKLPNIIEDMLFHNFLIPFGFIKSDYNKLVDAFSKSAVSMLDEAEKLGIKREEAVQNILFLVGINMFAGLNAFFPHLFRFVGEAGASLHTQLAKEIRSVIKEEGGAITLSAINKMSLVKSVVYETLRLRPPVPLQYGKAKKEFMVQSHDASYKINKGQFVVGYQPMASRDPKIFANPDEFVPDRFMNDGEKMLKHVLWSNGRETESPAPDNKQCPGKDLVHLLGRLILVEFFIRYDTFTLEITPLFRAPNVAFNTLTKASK

[2] = biological target: T2, CYP74D1 (Solanum lycopersicum, UniProt Q9FPM6); assay: Kinetic assays with affinity purified CYP74D-6H (decrease in A234); conditions: for estimated turnover rate (kcat): purified CYP74D-6H, assuming the total protein content to be active; for Km: read-out: apparent Km, recombinant DES (summary in description)
T2 sequence (Q9FPM6 whole entry): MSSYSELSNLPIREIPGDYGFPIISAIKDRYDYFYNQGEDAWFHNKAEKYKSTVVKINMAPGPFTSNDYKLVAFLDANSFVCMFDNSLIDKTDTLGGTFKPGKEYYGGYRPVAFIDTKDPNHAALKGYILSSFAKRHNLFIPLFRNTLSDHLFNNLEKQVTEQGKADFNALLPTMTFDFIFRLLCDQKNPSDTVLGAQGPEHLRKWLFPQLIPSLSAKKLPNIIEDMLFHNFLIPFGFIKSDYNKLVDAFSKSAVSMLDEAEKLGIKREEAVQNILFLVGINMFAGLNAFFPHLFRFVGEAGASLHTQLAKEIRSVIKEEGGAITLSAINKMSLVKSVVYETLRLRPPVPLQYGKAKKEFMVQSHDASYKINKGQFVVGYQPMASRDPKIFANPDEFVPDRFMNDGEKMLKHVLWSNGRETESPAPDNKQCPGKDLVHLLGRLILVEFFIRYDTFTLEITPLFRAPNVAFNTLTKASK

[3] = biological target: T2, CYP74D1; remark: listed apart in the source

SMILES	metabolism by extracts containing 6H-CYP74D (in words) [1]	estimated turnover rate (kcat) [2] [s⁻¹]	Km [2] [µM]	metabolized at % of the rate observed for 9-HPOD [3] [%]
CCCCC/C=C\C=C\[C@H](CCCCCCCC(=O)O)OO [9-HPOD, 9(S)-hydroperoxy-10(E),12(Z)-octadecadienoic acid]	efficiently metabolized	890	~67	–
CC/C=C\C/C=C\C=C\[C@H](CCCCCCCC(=O)O)OO [9-HPOT, 9(S)-hydroperoxy-10(E),12(Z),15(Z)-octadecatrienoic acid]	efficiently metabolized	500	~48	–
CCCCC[C@@H](/C=C/C=C\CCCCCCCC(=O)O)OO [13-HPOD, 13(S)-hydroperoxy-9(Z),11(E)-octadecadienoic acid]	poor substrates	–	–	–
CC/C=C\C[C@@H](/C=C/C=C\CCCCCCCC(=O)O)OO [13-HPOT, 13(S)-hydroperoxy-9(Z),11(E),15(Z)-octadecatrienoic acid]	poor substrates	–	–	< 5
